From PMC2674504, “Foam nest components of the túngara frog: a cocktail of proteins conferring physical and biological resilience” (Proceedings of the Royal Society B: Biological Sciences, 2009)
Where a SMILES comes first, the peptide text is derived from it. The star is where a group is joined. AMC = Cc1cc(=O)oc2cc(N*)ccc12; Cbz = O=C(OCc1ccccc1)*

Columns and labels:
Rsn-4 [1] = target: T1, Rsn-4 (Engystomops pustulosus, UniProt B5DCK4); assay: haemagglutination inhibition (human erythrocytes); lactose-agarose affinity chromatography eluted with […] lactose; format: binding; details: 20 mM sugar; 10 mM HEPES, 150 mM NaCl, 2 mM CaCl2; room temperature
T1 construct: dimer or higher order
T1 sequence (B5DCK4 20-193): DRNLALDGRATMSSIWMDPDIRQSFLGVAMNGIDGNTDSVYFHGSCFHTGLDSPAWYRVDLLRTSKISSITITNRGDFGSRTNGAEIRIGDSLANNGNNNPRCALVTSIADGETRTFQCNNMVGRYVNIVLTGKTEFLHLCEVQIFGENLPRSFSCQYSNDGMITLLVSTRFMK

papain = target: T2, papain (Carica papaya, UniProt P00784); assay: fluorogenic proteolysis assay (ex […] nm, em […] nm); format: biochemical; details: 0.1 M acetate pH 5.0, 10 mM dithiothreitol, 2 mM EDTA, 30 °C; mere turnover
T2 construct: commercial enzyme from papaya latex (Sigma)
T2 sequence (P00784 134-345): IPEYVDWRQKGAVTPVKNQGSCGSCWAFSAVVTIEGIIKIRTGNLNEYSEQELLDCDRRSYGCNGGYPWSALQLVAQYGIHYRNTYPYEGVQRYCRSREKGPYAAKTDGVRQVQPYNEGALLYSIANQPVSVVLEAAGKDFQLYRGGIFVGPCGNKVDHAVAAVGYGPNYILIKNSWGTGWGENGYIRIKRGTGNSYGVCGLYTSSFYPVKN

Rsn-4 [2] = target: T1, Rsn-4; assay: haemagglutination inhibition (human erythrocytes); format: cell-based; details: 20 mM sugar; 10 mM HEPES, 150 mM NaCl, 2 mM CaCl2; room temperature; protein refolded in buffer with 20 mM galactose

OC[C@H]1O[C@@H](O[C@H]2[C@H](O)[C@@H](O)C(O)O[C@@H]2CO)[C@H](O)[C@@H](O)[C@H]1O (stereo partly drawn) [lactose]
haemagglutination inhibition (human erythrocytes); lactose-agarose affinity chro (Rsn-4 [1]): Rsn-4 could be inhibited with lactose and galactose

Cc1cc(=O)oc2cc(NC(=O)[C@H](CCCNC(=N)N)NC(=O)[C@H](Cc3ccccc3)NC(=O)OCc3ccccc3)ccc12 [Z-Phe-Arg 7-amido-4-methylcoumarin] (Cbz-Phe-Arg-{AMC})
fluorogenic proteolysis assay (ex 370 nm, em 470 nm) (papain): papain) was investigated using fluorogenic or chromogenic substrates, Z-Phe-Arg 7-amido-4-methylcoumarin

OC[C@H]1OC(O)[C@H](O)[C@@H](O)[C@H]1O (stereo partly drawn) [galactose]
haemagglutination inhibition (human erythrocytes) (Rsn-4 [2]): agglutination by Rsn-4 was unaffected by fucose but completely inhibited by galactose
